Assay [1] relates to BMSCs. In words: F-actin cytoskeleton (phalloidin staining, confocal) in BMSCs under microgravity. Type of assay: cell-based. The settings on record: microgravity 3 days. How it is done:
Testing procedure: BMSCs were cultured in osteogenic medium. […] The representative images were captured at mid-plane of the cells and visualized using a confocal laser scanning microscope (magnification: 400×, scale bar: 25 μm). Hoechst counter-staining (blue; DAPI) was applied for determination of single cells.

The subject of assay [2] is differentiated BMSCs. Briefly: quantitative analysis of differentiation activity (ALP, RhoA, Rac1) of BMSCs under normal gravity and microgravity. It is filed as cell-based. The settings on record: microgravity. As for the experimental part:
Testing procedure: BMSCs were cultured in osteogenic medium. […] The representative images were captured at mid-plane of the cells and visualized using a confocal laser scanning microscope (magnification: 400×, scale bar: 25 μm). Hoechst counter-staining (blue; DAPI) was applied for determination of single cells. […] The quantitative analysis of the differentiation activity of BMSCs under normal gravity and microgravity is shown in FIG. 6, where FIG. 6a is the ALP activity analysis relative to the positive control group, FIG. 6b is the RhoA activity analysis in total protein, and FIG. 6c is the Rac1 activity analysis in total protein. The data in FIGS. 6a, 6b, and 6c are presented as mean values±SEM. Statistical analysis was performed using one-way […]<0.001; versus control: *p<0.05, ###p<0.001 (n=3).

The target in assay [3] is T1, integrin α5β1 (Homo sapiens, UniProt P05556+P08648).
T1 construct: Soluble integrin α5β1 (1.0 μg/ml) (R&D Systems, MN, USA); purchased R&D Systems
Briefly: competitive solid-phase binding ELISA (soluble integrin α5β1 vs coated fibronectin). The settings on record: fibronectin-coated plate, soluble integrin α5β1 1.0 μg/ml; read-out: IC50 for competing with fibronectin bound on integrin α5β1. A general note: An ELISA detects its analyte on a solid surface through an enzyme-linked reagent.

Setting [4] is: growth factor, concentration not given.

On to IGF-1: growth factor, positive control, for which the F-actin polymerization result in assay [1] (setting [4]) is “stimulated F-actin polymerization”.
Consider `COc1ccc(-c2oc3c(CC=C(C)C)c(O[C@@H]4O[C@H](CO)[C@@H](O)[C@H](O)[C@H]4O)cc(O)c3c(=O)c2O[C@@H]2O[C@@H](C)[C@H](O)[C@@H](O)[C@H]2O)cc1` [icariin], for which the F-actin polymerization result in assay [1] (10 nM) is on record as “stimulated F-actin polymerization”. Also, in assay [1] (0.1 μM), the F-actin polymerization result was “stimulated F-actin polymerization”. In addition, in assay [2] (differentiated BMSCs), the ALP activity entry was “significantly increase”, the Rac1 activity entry was “significantly increase” and the RhoA activity entry was “significantly increase”. In addition, the “differentiation of BMSCs” value in assay [2] (10 nM) is listed as “restore the differentiation”. Also, the “differentiation of BMSCs” value in assay [2] (100 nM) is listed as “restore the differentiation”.
As for `C[C@]12CC[C@@H]3c4ccc(O)cc4CC[C@H]3[C@@H]1CC[C@@H]2O` [E2, reference compound], in assay [1] (setting [4]), the F-actin polymerization entry was “not”.
Broadly, the IC50 is the concentration needed to halve the response being measured. Take `CC(C)=CCc1c(O)cc(O)c2c1O[C@H](c1ccc(O)cc1)CC2=O` [8-prenylnaringenin]: the IC50 in assay [3] was determined as 7.6 ± 3.92 nM.
For the molecule `CC(C)=CCc1c(O)cc(O)c2c(=O)c(-c3ccc(O)cc3)coc12` [8-prenylgenistein], in assay [3], the IC50 was 390 ± 280 nM.
